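Each compound was tested at five concentrations against cells in 96-well plates for 48 hours. GI50 is the concentration that inhibits growth by half. TGI denotes the concentration required for complete inhibition of growth.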
Tests used:
Assay in all cases: NCI-60 cell line screen, 48 h
[1] = system: M14 melanoma
[2] = system: NCI-H460 lung
[3] = system: COLO 205 colon
[4] = system: HCT-116 colon
[5] = system: OVCAR-3 ovarian
[6] = system: 786-0 renal
[7] = system: HCT-15 colon
[8] = system: T-47D breast
[9] = system: MDA-MB-435
[10] = system: NCI-H522 lung
[11] = system: SF-539 CNS
[12] = system: OVCAR-4 ovarian
[13] = system: NCI/ADR-RES ovarian
[14] = system: KM12 colon
[15] = system: RXF 393 renal
[16] = system: SK-MEL-28 melanoma
[17] = system: DU-145 prostate
[18] = system: CAKI-1 renal
[19] = system: ACHN renal
[20] = system: HOP-62 NSCLC
[21] = system: SNB-75 CNS
[22] = system: SW-620 colon
[23] = system: MOLT-4 leukemia
[24] = system: RPMI-8226 leukemia
[25] = system: SN12C renal
[26] = system: U251 CNS
[27] = system: TK-10 renal
[28] = system: SK-MEL-5 melanoma
[29] = system: HCC-2998 colon
[30] = system: SK-MEL-2 melanoma
[31] = system: MCF7 breast
[32] = system: HOP-92 NSCLC
[33] = system: SK-OV-3 ovarian
[34] = system: K-562 leukemia
[35] = system: HT29 colon
[36] = system: BT-549 breast
[37] = system: PC-3 prostate
[38] = system: HL-60(TB) leukemia
[39] = system: NCI-H226 lung
[40] = system: SF-295 CNS
[41] = system: UACC-257 melanoma
[42] = system: UO-31 renal
[43] = system: EKVX NSCLC
[44] = system: SR leukemia
[45] = system: A549 NSCLC
[46] = system: A498 renal
[47] = system: OVCAR-8 ovarian
[48] = system: OVCAR-5 ovarian
[49] = system: SF-268 CNS
[50] = system: LOX IMVI melanoma
[51] = system: MDA-MB-231 breast
[52] = system: MALME-3M melanoma
[53] = system: SNB-19 CNS
[54] = system: CCRF-CEM leukemia
[55] = system: HS 578T breast
[56] = system: UACC-62 melanoma
[57] = system: IGROV1 ovarian

Work on `Nc1nc(N)c2c(n1)NC(c1ccc(F)cc1)CC(c1ccc(Nc3nc(NCCO)nc(Nc4ccc(Cl)cc4)n3)cc1)=N2` (centres undefined) yielded a GI50 [1] of 1.66 µM, a TGI [1] of 3.3 µM and a GI50 [2] of 1.71 µM. It also gave a TGI [2] of 3.63 µM, a GI50 [3] of 1.49 µM and a TGI [3] of 2.94 µM. For the same compound, the GI50 [4] was 1.2 µM, the TGI [4] was 2.5 µM and the GI50 [5] was 1.58 µM. For the same compound, the TGI [5] was 3.28 µM, the GI50 [6] was 1.36 µM and the TGI [6] was 3.11 µM. The GI50 [7] was 1.03 µM, the TGI [7] was 2.84 µM and the GI50 [8] was 1.27 µM. The TGI [8] was 3.2 µM, the GI50 [9] was 1.7 µM and the TGI [9] was 3.55 µM. The GI50 [10] was 1.43 µM, the TGI [10] was 2.97 µM and the GI50 [11] was 1.56 µM. The TGI [11] was 3.15 µM, the GI50 [12] was 1.93 µM and the TGI [12] was 6.43 µM. It also gave a GI50 [13] of 7.73 µM, a TGI [13] greater than 100 µM and a GI50 [14] of 1.68 µM. It also gave a TGI [14] of 3.71 µM, a GI50 [15] of 1.17 µM and a TGI [15] of 2.63 µM. For the same compound, the GI50 [16] was 1.7 µM, the TGI [16] was 3.18 µM and the GI50 [17] was 1.75 µM. For the same compound, the TGI [17] was 3.5 µM, the GI50 [18] was 6.14 µM and the TGI [18] was 39.6 µM. It also gave a GI50 [19] of 3.22 µM, a TGI [19] of 17.3 µM and a GI50 [20] of 1.77 µM. It also gave a TGI [20] of 4.3 µM, a GI50 [21] of 3.35 µM and a TGI [21] of 16 µM. For the same compound, the GI50 [22] was 1.6 µM, the TGI [22] was 3.27 µM and the GI50 [23] was 0.532 µM. The TGI [23] was 3.47 µM, the GI50 [24] was 1.01 µM and the TGI [24] was 3.24 µM. The GI50 [25] was 2.08 µM, the TGI [25] was 5.19 µM and the GI50 [26] was 1.37 µM. It also gave a TGI [26] of 2.73 µM, a GI50 [27] of 4.61 µM and a TGI [27] of 15.5 µM. It also gave a GI50 [28] of 1.46 µM, a TGI [28] of 2.78 µM and a GI50 [29] of 1.61 µM. For the same compound, the TGI [29] was 3.05 µM, the GI50 [30] was 1.67 µM and the TGI [30] was 3.1 µM. It also gave a GI50 [31] of 0.956 µM, a TGI [31] of 2.43 µM and a GI50 [32] of 1.25 µM. The TGI [32] was 3.54 µM, the GI50 [33] was 12.9 µM and the TGI [33] was 25.5 µM. For the same compound, the GI50 [34] was 0.489 µM, the TGI [34] was greater than 100 µM and the GI50 [35] was 1.42 µM. The TGI [35] was 3.15 µM, the GI50 [36] was 1.56 µM and the TGI [36] was 3.17 µM. It also gave a GI50 [37] of 1.72 µM, a TGI [37] of 11.4 µM and a GI50 [38] of 0.863 µM. It also gave a TGI [38] of 3.51 µM, a GI50 [39] of 2.49 µM and a TGI [39] of 7.11 µM. For the same compound, the GI50 [40] was 1.96 µM, the TGI [40] was 3.75 µM and the GI50 [41] was 1.85 µM. For the same compound, the TGI [41] was 3.52 µM, the GI50 [42] was 3.07 µM and the TGI [42] was 20.4 µM. The GI50 [43] was 1.66 µM, the TGI [43] was 5.35 µM and the GI50 [44] was 0.672 µM. It also gave a TGI [44] of 4.75 µM, a GI50 [45] of 3.12 µM and a TGI [45] greater than 100 µM. For the same compound, the GI50 [46] was 3.72 µM, the TGI [46] was 15.3 µM and the GI50 [47] was 1.16 µM. The TGI [47] was 2.81 µM, the GI50 [48] was 5.1 µM and the TGI [48] was 24.4 µM. For the same compound, the GI50 [49] was 2.85 µM and the TGI [49] was 12.3 µM.
`Nc1nc(-c2cccc([N+](=O)[O-])c2)c(N=Nc2ccccc2[N+](=O)[O-])s1` gave a GI50 [1] of 4.84 µM, a TGI [1] of 61.3 µM and a GI50 [2] of 2.25 µM. It also gave a TGI [2] greater than 100 µM, a GI50 [3] of 42.8 µM and a TGI [3] greater than 100 µM. It also gave a GI50 [4] of 1.51 µM, a TGI [4] of 5.73 µM and a GI50 [50] of 1.83 µM. For the same compound, the TGI [50] was 6 µM, the GI50 [51] was 1.46 µM and the TGI [51] was 3.26 µM. For the same compound, the GI50 [6] was 1.54 µM, the TGI [6] was 3.01 µM and the GI50 [7] was 2.35 µM. The TGI [7] was greater than 100 µM, the GI50 [8] was 4.04 µM and the TGI [8] was greater than 100 µM. For the same compound, the GI50 [9] was 0.865 µM, the TGI [9] was greater than 100 µM and the GI50 [10] was 1.94 µM. For the same compound, the TGI [10] was 14.4 µM, the GI50 [11] was 1.47 µM and the TGI [11] was 2.89 µM. For the same compound, the GI50 [14] was 5.39 µM, the TGI [14] was greater than 100 µM and the GI50 [52] was 2.9 µM. The TGI [52] was 8.6 µM, the GI50 [53] was 3.01 µM and the TGI [53] was 14.4 µM. For the same compound, the GI50 [15] was 1.64 µM, the TGI [15] was 3.2 µM and the GI50 [17] was 4.79 µM. For the same compound, the TGI [17] was greater than 100 µM, the GI50 [54] was 3.42 µM and the TGI [54] was greater than 100 µM. It also gave a GI50 [55] of 2.55 µM, a TGI [55] of 9.04 µM and a GI50 [18] of 1.43 µM. It also gave a TGI [18] of 2.98 µM, a GI50 [19] of 1.27 µM and a TGI [19] of 2.75 µM. It also gave a GI50 [20] of 2.04 µM, a TGI [20] of 6.33 µM and a GI50 [56] of 2.11 µM. It also gave a TGI [56] greater than 100 µM, a GI50 [21] of 1.44 µM and a TGI [21] of 3.61 µM. The GI50 [23] was 8.73 µM, the TGI [23] was greater than 100 µM and the GI50 [24] was 4.18 µM. For the same compound, the TGI [24] was greater than 100 µM, the GI50 [26] was 1.69 µM and the TGI [26] was 3.29 µM. For the same compound, the GI50 [27] was 2.91 µM, the TGI [27] was 5.95 µM and the GI50 [28] was 3.41 µM. It also gave a TGI [28] of 31.1 µM, a GI50 [29] of 53.5 µM and a TGI [29] greater than 100 µM. It also gave a GI50 [30] of 14.8 µM, a TGI [30] of 38.7 µM and a GI50 [31] of 18.8 µM. The TGI [31] was greater than 100 µM, the GI50 [32] was 0.285 µM and the TGI [32] was 3.63 µM. It also gave a GI50 [33] of 2.13 µM, a TGI [33] of 5.2 µM and a GI50 [34] of 5.57 µM. The TGI [34] was greater than 100 µM, the GI50 [35] was 59 µM and the TGI [35] was greater than 100 µM. The GI50 [36] was 4.66 µM, the TGI [36] was 32.7 µM and the GI50 [37] was 3.43 µM. The TGI [37] was greater than 100 µM, the GI50 [38] was 48.7 µM and the TGI [38] was greater than 100 µM. It also gave a GI50 [40] of 2.8 µM, a TGI [40] of 14.1 µM and a GI50 [41] of 63.4 µM. For the same compound, the TGI [41] was greater than 100 µM, the GI50 [43] was 6.05 µM and the TGI [43] was greater than 100 µM. The GI50 [44] was 22.7 µM, the TGI [44] was greater than 100 µM and the GI50 [45] was 20.7 µM. It also gave a TGI [45] greater than 100 µM, a GI50 [57] of 2.32 µM and a TGI [57] of 5.84 µM. For the same compound, the GI50 [46] was 7.62 µM, the TGI [46] was 30.5 µM and the GI50 [48] was 8.34 µM. It also gave a TGI [48] greater than 100 µM, a GI50 [49] of 3.62 µM and a TGI [49] greater than 100 µM.

Source: PubChem BioAssay (NCI)
